One compound from patent US7807721B2, “Compositions for inhibiting the scent tracking ability of mosquitoes in environmentally defined three dimensional spaces” (Biosensory Inc., priority 1999, dated 2010) can be followed below.

This assay relates to adult female Aedes aegypti mosquitoes. The assay is described as follows: Dual-port olfactometer tests of Example 2: test compound + CS vs CS, and Deet vs inhibitor. The class given is in vivo. From the text:
A triple cage, dual-port olfactometer, illustrated and described in detail by Posey et al. J. Med. Entomol. 35(3), 330-334 (1998), was used to study the responses of 6 to 8 day old, laboratory-reared adult female Aedes aegypti mosquitoes. This system allows mosquitoes to choose between two different stimuli. The olfactometer is constructed of clear acrylic, comprises three test chambers in a tiered configuration, has paired removable sleeves, and mosquito traps on each chamber, and is equipped with a filtered external air supply system that allows precise temperature (+/−0.5° C.) and relative humidity (+/−2%) control. Only one chamber at a time was used for the tests. Outside air was conditioned prior to entry through the choice ports, the mosquito trap, and the olfactometer by passing through a series of charcoal filters and then heated and humidified, if necessary. One hour before initiation of tests, about 75 female Ae. aegypti mosquitoes were aspirated into the olfactometer chamber and allowed to acclimatize for that one hour before testing. Test compounds were placed into test ports upwind of the traps and olfactometer chamber. A completely randomized design was used for cage position. Competitive tests were conducted. In these competitive tests, the inhibiting compound was placed into one of the ports (treatment port); the second port (check port) had the same apparatus but no chemical inhibiting compound. In these tests, inhibiting compounds were presented in glass Pyrex petri dishes (60×15 mm) that had been cleaned and sterilized in a vacuum oven and then handled only with gloves to minimize any chance of contamination and placed into one port (Treatment Port) along with another petri dish containing 500 μL of Clara Sludge (CS), a synthetic human attractant. The other port (Check Port) contained an untreated petri with no inhibiting compound and a second petri dish containing 500 μL CS. Various concentrations (25, 100, 250, 500 and 1000 μL) of the compounds were used in these tests. Each test was conducted for a period of 3 minutes; the number of mosquitoes trapped in the baited ports, and those remaining in the cage, were counted. The data are then presented as a percentage of total mosquitoes in the cage that were attracted to each port and the percentage of mosquitoes remaining in the cage (i.e., not attracted to either port). Tests identical to that described in Example 1 were conducted with test compounds when employed together with the synthetic human attractant (CS) in a port. The test combinations were: • (1) CS vs. CS (comparison) • (2) dehydrolinalool+CS vs. CS • (3) linalool+CS vs. CS Also for comparison purposes, a known topical mosquito repellent, Deet, namely N,N-diethyl-3-methylbenzamide, was employed to compare to linalool and to dehydrolinalool. Each test compound was tested at 100, 250 and 500 μL. The results are again presented as percent mosquitoes attracted to Ports 1 or 2 or not attracted to either port.

Setting [1] is: 100 micro liter, Port 1 Deet vs Port 2 linalool.
Setting [2] is: 100 micro liter, Port 1 test compound vs Port 2 human scent.
The mark [3] stands for this setting: 250 micro liter, Port 1 Deet vs Port 2 linalool.
The mark [4] stands for this setting: 250 micro liter, Port 1 test compound vs Port 2 human scent.
The mark [5] stands for this setting: 500 micro liter, Port 1 Deet vs Port 2 linalool.
The mark [6] stands for this setting: 500 micro liter, Port 1 test compound vs Port 2 human scent.

In the case of `C=CC(C)(O)CCC=C(C)C` (stereo not drawn) [Linalool, linalool], the “% Mosquitoes Entering Port 2 (linalool)” value by setting is: under setting [1], 17.5%; under setting [3], 25.7%; under setting [5], 23.1%. Also, the “% Mosquitoes Remaining in Cage” value reads like this: under setting [1], 26.2%; under setting [2], 26.8%; under setting [3], 26.2%; under setting [4], 28.4%; under setting [5], 27.3%; under setting [6], 18.7%. The “% Mosquitoes Entering Port 1 (test compound + CS)” value reads like this: under setting [2], 22.5%; under setting [4], 14.9%; under setting [6], 25.7%. Further, the “% Mosquitoes Entering Port 2 (human scent)” value is 50.7% under setting [2], 56.8% under setting [4] and 55.6% under setting [6].
